From patent US20070249686A1, “Modulators of Crth-2 Receptor Activity for the Treatment of Prostaglandin D2 Mediated Diseases” (ASTRAZENECA AB, priority 2004, published 2007)

What follows are compounds tested against T1, CRTh2 (Homo sapiens, UniProt Q9Y5Y4) (assay: Ligand binding assay: [3H]PGD2 binding to membranes of HEK cells expressing rhCRTh2/Gα16 (SPA beads)). Details: [3H]PGD2 displacement, HEK cell membranes containing CRTh2, SPA, 2 hours at room temperature.
T1 construct: expressed in transfected cells; host or cells: HEK cells (membrane preparation)
T1 sequence (Q9Y5Y4 1-395): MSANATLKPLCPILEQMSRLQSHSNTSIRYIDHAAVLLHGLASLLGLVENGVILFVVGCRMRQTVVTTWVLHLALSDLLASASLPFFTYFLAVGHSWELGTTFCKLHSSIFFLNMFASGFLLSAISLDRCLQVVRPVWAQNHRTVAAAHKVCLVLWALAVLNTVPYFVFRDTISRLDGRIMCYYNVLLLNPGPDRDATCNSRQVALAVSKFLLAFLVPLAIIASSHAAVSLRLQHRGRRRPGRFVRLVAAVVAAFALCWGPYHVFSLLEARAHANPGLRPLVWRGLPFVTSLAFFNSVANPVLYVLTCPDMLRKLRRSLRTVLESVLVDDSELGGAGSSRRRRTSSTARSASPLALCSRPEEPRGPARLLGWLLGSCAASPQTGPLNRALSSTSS
Procedure: [hu 3H]PGD2 was purchased from Perkin Elmer Life Sciences with a specific activity of 100-210 Ci/mmol. All other chemicals were of analytical grade.
HEK cells expressing rhCRTh2/Gα16 were routinely maintained in DMEM containing 10% Foetal Bovine Serum (HyClone), 1 mg/ml geneticin, 2 mM L-glutamine and 1% non-essential amino acids. For the preparation of membranes, the adherent transfected HEKcells were grown to confluence in two layer tissue culture factories (Fisher, catalogue number TKT-170-070E). Maximal levels of receptor expression were induced by addition of […] sodium butyrate for the last 18 hours of culture. The adherent cells were washed once with phosphate buffered saline (PBS, 50 ml per cell factory) and detached by the addition of 50 ml per cell factory of ice-cold membrane homogenisation buffer [20 mM HEPES (pH 7.4), 0.1 mM dithiothreitol, 1 mM EDTA, 0.1 mM phenyl methyl sulphonyl fluoride and 100 μg/ml bacitracin]. […] The final pellet was re-suspended in 4 ml of membrane homogenisation buffer per cell factory used and the protein content determined. […]
All assays were performed in Corning clear bottomed, white 96-well NBS plates (Fisher). […] (The optimum coating concentrations were determined for each batch of membranes) The beads were pelleted by centrifugation (800×g for 7minutes at 4° C.), washed once with assay buffer (50 mM HEPES pH 7.4 containing 5 mM magnesium chloride) and finally re-suspended in assay buffer at a bead concentration of 10 mg/ml.
Each assay contained 20 μl of 6.25 nM [^3H]PGD2, 20 μl membrane saturated SPA beads both in assay buffer and 10 μl of compound solution or 13,14-dihydro-15-keto prostaglandin D2 (DK-PGD2, for determination of non-specific binding, Cayman chemical company). […] The assay plate was incubated at room temperature for 2 hours and counted on a Wallac Microbeta liquid scintillation counter (1 minute per well).
`CCS(=O)(=O)c1ccc(-c2nc(C)ccc2OCC(=O)O)c(C)c1` [Example 11, ({2-[4-(Ethylsulfonyl)-2-methylphenyl]-6-methylpyridin-3-yl}oxy)acetic acid] gave an IC50 of 63.1 nM.
In the case of `Cc1nn(S(=O)(=O)N(C)C)cc1-c1cc(C(F)(F)F)ccc1O[C@@H](C)C(=O)O` [Example 22, (2S)-2-[2-{1-[(Dimethylamino)sulfonyl]-3-methyl-1H-pyrazol-4-yl}-4-(trifluoromethyl)phenoxy]propanoic acid], the IC50 is reported as 10 nM.
`CS(=O)(=O)c1ccc(-c2cc(C(F)(F)F)ccc2CCC(=O)O)cc1C(F)(F)F` [Example 31, 3-[4′-(Methylsulfonyl)-3′,5-bis(trifluoromethyl)biphenyl-2-yl]propanoic acid] gave an IC50 of 39.8 nM.
